Measured values: patent US12729180B2, “Functionalized Maleimides and Isomaleimides and a process for preparation thereof” (COUNCIL OF SCIENTIFIC AND INDUSTRIAL RESEARCH, priority 2021, dated 2026)

Test system: MCF-7 breast cancer cell line
Test: MTT assay against breast cancer cell line
Assay type: cell-based
Details: Homo sapiens, MCF7, 72 hours after treatment; for cytotoxicity at 100 µM / viability at 100 µM: MCF-7, 100 uM; for cytotoxicity at 100 µM / cytotoxicity at 300 µM: read-out: % Dead cells; for viability at 100 µM / viability at 300 µM: read-out: % Live cells; for cytotoxicity at 300 µM / viability at 300 µM: MCF-7, 300 uM
Method: In another embodiment, the functionalized maleimides and isomaleimides of Formula (I) are useful as antimicrobials and anti-cancer agents. MTT assay of compounds of Formula (I) is summarized below in Table-1 The compounds were tested against breast cancer cell line at 100 and 300 μM concentrations and % live and % dead cells were determined.
The compounds were evaluated for anti-cancer activity by testing them against breast cancer cell lines obtained from NCCS, Pune, India. The MITT assay was carried out. The assay procedure involves reconstitution of the pre-measured MTT reagent in the assay buffer, followed by its addition to the culture system. After dissolving the formazan crystals in the solubilization solution, results can be directly read on a suitable reader.
• 1. Harvest the cells; • 2. Seed 10,000 cells in 100 μl DMEM media/well in 96-well microtiter plate in triplicate; • 3. Incubate the cells at 37° C., 5% CO2 for 24 hours to achieve morphology; • 4. Treat the cells with varying concentrations of drugs; • 5. Controls included untreated cells and cells treated with 100 uM Doxorubicin; • 6. Incubate the cells for 72 hours after treatment; • 7. Add 10 μl of MTT to each well, including controls; • 8. Wrap the plate with aluminium foil to avoid exposure to light; • 9. Return the plate to the incubator for 2 hours; • 10. Observe the cells under an inverted microscope for presence of intracellular needle-shaped, dark purple coloured precipitate; • 11. When the purple precipitate is clearly visible under the microscope, add 100 μl of solubilization solution to the wells; • 12. Stir gently on a gyratory shaker to enhance dissolution of the crystals; • 13. Read the absorbance on a spectrophotometer or an ELISA reader at 570 nm with a reference wavelength higher than 650 nm.

Compound	cytotoxicity at 100 µM [%]	viability at 100 µM [%]	cytotoxicity at 300 µM [%]	viability at 300 µM [%]
CCOC(=O)CC1=C(Cc2ccc(F)c(F)c2)C(=O)O/C1=N\C1CCC(C)CC1 (stereo not drawn) [Compound 3g, Ethyl (Z)-2-(4-(3,4-difluorobenzyl)-2-((4-methylcyclohexyl)imino)-5-oxo-2,5-dihydrofuran-3-yl)acetate]	26.4	73.6	47.2	52.8
CCOC(=O)CC1=C(Cc2ccc3ccccc3c2)C(=O)O/C1=N\C1CCC(C)CC1 (stereo not drawn) [Compound 3j, Ethyl (Z)-2-(2-((4-methylcyclohexyl)imino)-4-(naphthalen-2-ylmethyl)-5-oxo-2,5-dihydrofuran-3-yl)acetate]	51.7	48.3	59.7	40.3
CCOC(=O)CC1=C(Cc2ccc(Cl)cc2)C(=O)O/C1=N\C1CCC(C)CC1 (stereo not drawn) [Compound 3e, Ethyl (Z)-2-(4-(4-chlorobenzyl)-2-((4-methylcyclohexyl)imino)-5-oxo-2,5-dihydrofuran-3-yl)acetate]	45.3	54.7	53.7	46.3
CCOC(=O)CC1=C(Cc2cccc(Oc3ccccc3)c2)C(=O)O/C1=N\C1CCC(C)CC1 (stereo not drawn) [Compound 3c, Ethyl (Z)-2-(2-((4-methylcyclohexyl)imino)-5-oxo-4-(3-phenoxybenzyl)-2,5-dihydrofuran-3-yl) acetate]	32.9	67.1	34.8	65.2
CCOC(=O)CC1=C(Cc2cccc(C(F)(F)F)c2)C(=O)O/C1=N\C1CCC(C)CC1 (stereo not drawn) [Compound 3h, Ethyl (Z)-2-(2-((4-methylcyclohexyl)imino)-5-oxo-4-(3-(trifluoromethyl)benzyl)-2,5-dihydrofuran-3-yl)acetate]	49.1	50.9	60.9	39.1
CCOC(=O)CC1=C(Cc2cc(OC)ccc2OC)C(=O)O/C1=N\C1CCC(C)CC1 (stereo not drawn) [Compound 3d, Ethyl (Z)-2-(4-(2,5-dimethoxybenzyl)-2-((4-methylcyclohexyl)imino)-5-oxo-2,5-dihydrofuran-3-yl)acetate]	32.9	67.1	54.4	45.6
CCOC(=O)CC1=C(C(c2ccccc2)c2ccccc2)C(=O)O/C1=N\C1CCC(C)CC1 (stereo not drawn) [Compound 3p, Ethyl (Z)-2-(4-benzhydryl-2-((4-methylcyclohexyl)imino)-5-oxo-2,5-dihydrofuran-3-yl)acetate]	43.5	56.5	51.1	48.9
CCOC(=O)CC1=C(Cc2c3ccccc3cc3ccccc23)C(=O)O/C1=N\C1CCC(C)CC1 (stereo not drawn) [Compound 3k, Ethyl (Z)-2-(4-(anthracen-9-ylmethyl)-2-((4-methylcyclohexyl)imino)-5-oxo-2,5-dihydrofuran-3-yl)acetate]	27.4	72.5	33	67
CCOC(=O)CC1=C(Cc2ccccc2F)C(=O)O/C1=N\C1CCC(C)CC1 (stereo not drawn) [Compound 3f, Ethyl (Z)-2-(4-(2-fluorobenzyl)-2-((4-methylcyclohexyl)imino)-5-oxo-2,5-dihydrofuran-3-yl)acetate]	26.6	73.4	49.6	50.4
